Reference: US20040248926A1, “Preventive or remedy for pruritus” (priority 2001, published 2004)

Key:
Format in all cases: in vivo
Acute toxicity test = conditions: oral administration, male dd mice, mortality on the seventh day
Procedure: The test compound was administered orally or intraperitoneally to three/group male dd mice (body weight: 20±1 g). The minimum lethal dose (MLD) was obtained by observing the mortality on the seventh day after the administration.

[1] = tested on: poly-L-arginine-induced scratching; experiment: Inhibitory effect on poly-L-arginine-induced scratching; conditions: rats
Procedure: The experiment was carried out according to the method of Hayashi, et al. [Eur. J. Pharmacol., Vol. 425, pp. 219-227 (2001)].
(§1) Male Wistar rats of 5 weeks (supplied by Japan SLC) were used in the test. 4 to 6 rats were put in each plastic cage and reared by allowing them to freely take commercially available solid feed and water, in an animal room at 19-25° C., 30-70% humidity and a 12 h lighting cycle (lighting: 7:00 a.m. to 7:00 p.m.) a day.
Every rat was shaven on the back, individually put in an acrylic monitor cage (200×145×170 mm), and acclimated therein for 30 minutes. 50 μl of a solution of poly-L-arginine (by Sigma) (4 mg of poly-L-arginine was dissolved in 1 ml of physiological saline) was intracutaneously injected into the interscapular region of each rat. For 30 minutes immediately after this, the behavior of every rat was recorded with a 8-mm video camera recorder. The video was reproduced, and the number of the scratching by its back paws at around the area where the solution had been intracutaneously injected was counted for 30 minutes immediately after the intracutaneous administration. Each rat scratched itself a few times per about one second, and a series of these actions of each rat was counted as one.
Compound 1 was suspended in aqueous 0.5 w/v % methyl cellulose solution to have a concentration of 0.1 or 1 mg/ml. […]

[2] = tested on: compound 48/80-induced scratching; experiment: Inhibitory effect on compound 48/80-induced scratching in mice; conditions: for number of the scratching: mean ± standard error; for effect on compound 48/80-induced scratching (in words): mice, p.o.
Procedure: The experiment was carried out according to the method of Kuraishi, et al. [Eur. J. Pharmacol., Vol. 275, pp. 229-233 (1995)).
as §1, with “ddY mice each weighing 19 to 22 g” for “Wistar rats of 5 weeks”, “25” for “4”, “26 mice” for “6 rats”
0.1 ml of a solution of compound 48/80 (by Sigma) (0.1 mg of compound 48/80 was dissolved in 1 ml of physiological saline) was subcutaneously injected into the right-side back shoulder of each mouse, and all the mice were individually put in a transparent cage. For 1 hour immediately after this, the behavior of every mouse was recorded with an 8-mm video camera recorder. The video was reproduced, and the number of the scratching by its right hind paw was counted for 1 hour immediately after the subcutaneous administration, at intervals of 5 minutes or 10 minutes, and the data of every 5 or 10 minutes were totaled. Each mouse scratched itself a few times per about one second, and a series of these actions of each mouse was counted as one.
Compound 1 and Compound 2 were separately suspended in aqueous 0.5 w/v % methyl cellulose solution to have a concentration of 3 mg/ml. The suspension of Compound 1 was further diluted with aqueous 0.5w/v % methyl cellulose solution, and suspensions or solutions for administration each having an intended concentration were prepared. The solvent (aqueous 0.5 w/v % methyl cellulose solution) or the suspension or solution for administration was orally administered to each mouse, 30 minutes before the subcutaneous injection of the compound 48/80, and its volume was 10 ml/kg. The solvent-administered mice were a control group.

C[C@](O)(C(=O)Nc1cccc2c1C(=O)c1sccc1CS2(=O)=O)C(F)(F)F [Compound 1, (S)-(+)-3,3,3-trifluoro-2-hydroxy-2-methyl-N-(5,5,10-trioxo-4,10-dihydrothieno[3,2c][1]benzothiepin-9-yl)propanamide]
minimum lethal dose (MLD) (Acute toxicity test): > 1000 mg/kg
Number of Scratching Actions for 30 minutes ([1]; 10 mg/kg p.o., 2 hours before intracutaneous poly-L-arginine, mean ± standard error, n = 8): 14 ± 3
effect on poly-L-arginine-induced pruritic behavior (in words) ([1]; p.o.): inhibited
number of the scratching ([2]; 3 mg/kg p.o., 0-5 min after subcutaneous injection of compound 48/80, totaled, n = 4): 3 ± 1
number of the scratching ([2]; 3 mg/kg p.o., 5-10 min after subcutaneous injection, totaled, n = 4): 7 ± 2
number of the scratching ([2]; 3 mg/kg p.o., 10-15 min after subcutaneous injection, totaled, n = 4): 9 ± 1
number of the scratching ([2]; 3 mg/kg p.o., 15-20 min after subcutaneous injection, totaled, n = 4): 12 ± 4
number of the scratching ([2]; 3 mg/kg p.o., 20-25 min after subcutaneous injection, totaled, n = 4): 13 ± 4
number of the scratching ([2]; 3 mg/kg p.o., 25-30 min after subcutaneous injection, totaled, n = 4): 14 ± 5
number of the scratching ([2]; 3 mg/kg p.o., 30-35 min after subcutaneous injection, totaled, n = 4): 15 ± 5
number of the scratching ([2]; 3 mg/kg p.o., 35-40 min after subcutaneous injection, totaled, n = 4): 15 ± 5
number of the scratching ([2]; 3 mg/kg p.o., 40-45 min after subcutaneous injection, totaled, n = 4): 17 ± 6
number of the scratching ([2]; 3 mg/kg p.o., 45-50 min after subcutaneous injection, totaled, n = 4): 18 ± 6
number of the scratching ([2]; 3 mg/kg p.o., 50-55 min after subcutaneous injection, totaled, n = 4): 18 ± 6
number of the scratching ([2]; 3 mg/kg p.o., 55-60 min after subcutaneous injection, totaled, n = 4): 18 ± 6
number of the scratching ([2]; 10 mg/kg p.o., 0-5 min after subcutaneous injection, totaled, n = 4): 2 ± 1
number of the scratching ([2]; 10 mg/kg p.o., 5-10 min after subcutaneous injection, totaled, n = 4): 6 ± 2
number of the scratching ([2]; 10 mg/kg p.o., 10-15 min after subcutaneous injection, totaled, n = 4): 8 ± 2
number of the scratching ([2]; 10 mg/kg p.o., 15-20 min after subcutaneous injection, totaled, n = 4): 9 ± 2
number of the scratching ([2]; 10 mg/kg p.o., 20-25 min after subcutaneous injection, totaled, n = 4): 10 ± 3
number of the scratching ([2]; 10 mg/kg p.o., 25-30 min after subcutaneous injection, totaled, n = 4): 10 ± 3
number of the scratching ([2]; 10 mg/kg p.o., 30-35 min after subcutaneous injection, totaled, n = 4): 11 ± 3
number of the scratching ([2]; 10 mg/kg p.o., 35-40 min after subcutaneous injection, totaled, n = 4): 11 ± 3
number of the scratching ([2]; 10 mg/kg p.o., 40-45 min after subcutaneous injection, totaled, n = 4): 12 ± 3
number of the scratching ([2]; 10 mg/kg p.o., 45-50 min after subcutaneous injection, totaled, n = 4): 12 ± 3
number of the scratching ([2]; 10 mg/kg p.o., 50-55 min after subcutaneous injection, totaled, n = 4): 12 ± 3
number of the scratching ([2]; 10 mg/kg p.o., 55-60 min after subcutaneous injection, totaled, n = 4): 12 ± 3
number of the scratching ([2]; 30 mg/kg p.o., 0-5 min after subcutaneous injection, totaled, n = 4): 0 ± 0
number of the scratching ([2]; 30 mg/kg p.o., 5-10 min after subcutaneous injection, totaled, n = 4): 0 ± 0
number of the scratching ([2]; 30 mg/kg p.o., 10-15 min after subcutaneous injection, totaled, n = 4): 1 ± 1
number of the scratching ([2]; 30 mg/kg p.o., 15-20 min after subcutaneous injection, totaled, n = 4): 2 ± 1
number of the scratching ([2]; 30 mg/kg p.o., 20-25 min after subcutaneous injection, totaled, n = 4): 3 ± 1
number of the scratching ([2]; 30 mg/kg p.o., 25-30 min after subcutaneous injection, totaled, n = 4): 3 ± 1
number of the scratching ([2]; 30 mg/kg p.o., 30-35 min after subcutaneous injection, totaled, n = 4): 4 ± 1
number of the scratching ([2]; 30 mg/kg p.o., 35-40 min after subcutaneous injection, totaled, n = 4): 4 ± 1
number of the scratching ([2]; 30 mg/kg p.o., 40-45 min after subcutaneous injection, totaled, n = 4): 4 ± 1
number of the scratching ([2]; 30 mg/kg p.o., 45-50 min after subcutaneous injection, totaled, n = 4): 4 ± 1
number of the scratching ([2]; 30 mg/kg p.o., 50-55 min after subcutaneous injection, totaled, n = 4): 4 ± 1
number of the scratching ([2]; 30 mg/kg p.o., 55-60 min after subcutaneous injection, totaled, n = 4): 4 ± 1
effect on compound 48/80-induced scratching (in words) [2]: inhibited

CC(C)(O)C(=O)Nc1cccc2c1C(=O)c1sccc1CS2(=O)=O [Compound 2, 2-hydroxy-2-methyl-N-(5,5,10-trioxo-4,10-dihydrothieno [3,2c][1]benzothiepin-9-yl)propanamide]
number of the scratching ([2]; 30 mg/kg p.o., 0-10 min after subcutaneous injection, totaled, n = 10): 10 ± 2
number of the scratching ([2]; 30 mg/kg p.o., 10-20 min after subcutaneous injection, totaled, n = 10): 11 ± 3
number of the scratching ([2]; 30 mg/kg p.o., 20-30 min after subcutaneous injection, totaled, n = 10): 14 ± 2
number of the scratching ([2]; 30 mg/kg p.o., 30-40 min after subcutaneous injection, totaled, n = 10): 14 ± 2
number of the scratching ([2]; 30 mg/kg p.o., 40-50 min after subcutaneous injection, totaled, n = 10): 14 ± 2
number of the scratching ([2]; 30 mg/kg p.o., 50-60 min after subcutaneous injection, totaled, n = 10): 14 ± 2
effect on compound 48/80-induced scratching (in words) [2]: inhibited
